Assay results published in ChEMBL document CHEMBL1152186, “Design, synthesis, and evaluation of orally active inhibitors of plasminogen activator inhibitor-1 (PAI-1) production” (Bioorg Med Chem Lett, 2008).
Converted amounts (≈) assume the structure as drawn.

How the values were obtained:
[1] = species: Bos taurus; assay: Inhibition of LPS-induced PAI1 production in BCAEC at 1 uM after 24 hrs relative to T-686; assay type: functional
[2] = Solubility in water; assay type: physicochemical
[3] = Metabolic stability in dog blood after 1 hr; assay type: ADME, tissue-based, Canis lupus familiaris; conditions: read-out: Stability
[4] = species: Bos taurus; assay: Inhibition of LPS-induced PAI1 production in BCAEC at 10 uM after 24 hrs relative to T-686; assay type: functional
[5] = test system: Rattus norvegicus; assay: Antithrombotic activity in rat venous thrombosis model assessed as decrease in thrombus weight at 3 mg/kg, po administered for 3 days after 2 hrs last dose; assay type: functional; design: scale not given: the % may be the effect or the level left
[6] = test system: Rattus norvegicus; assay: Toxicity in rat assessed as decrease in locomotor activity at 300 mg/kg, po; assay type: organism-based; design: dose 300 mg/kg, route oral; conditions: in vivo

solubility [2] [µg/mL] | remaining at 1 h [3] [%] | SMILES | Activity [1] | Activity [4] | other results
 |  | COC(=O)C(=C(/C)c1cc(OC)cc(OC)c1)/C(=C\c1ccccc1)C(=O)Nc1cccc2cccnc12 | 0.4 |  | 
 |  | COC(=O)C(=C(/C)c1cc(OC)cc(OC)c1)/C(=C\c1ccccc1)C(=O)Nc1ncccn1 | 0.1 |  | 
> 2000 | 76 | COC(=O)C(=C(/C)c1cc(OC)cc(OC)c1)/C(=C\c1ccccc1)C(=O)NCc1ccncc1 | 2.1 |  | 
 |  | COC(=O)C(=C(/C)c1cc(OC)cc(OC)c1)/C(=C\c1ccccc1)C(=O)O | 0.4 |  | 
 |  | COC(=O)C(=C(/C)c1cc(OC)cc(OC)c1)/C(=C\c1ccccc1)C(=O)NC1CCN(C)CC1 | 0.8 |  | 
> 4000 | 88 | COC(=O)C(=C(/C)c1cc(OC)cc(OC)c1)/C(=C\c1ccncc1)C(N)=O | 1.5 |  | 
106 (≈ 0.258 mM) | 96 | COC(=O)C(=C(/C)c1cc(OC)c(OC)c(OC)c1)/C(=C\c1ccccc1)C(N)=O | 1.5 | 1 | 
 |  | COC(=O)C(=C(/C)c1cc(OC)cc(OC)c1)/C(=C\c1ccccc1)C(=O)Nn1cnnc1 | 0.6 |  | 
 |  | COC(=O)C(=C(/C)c1cc(OC)cc(OC)c1)/C(=C\c1ccccc1)C(=O)N1CCN(C)CC1 | 0.3 |  | 
 |  | COC(=O)C(=C/c1cc(OC)c(OC)c(OC)c1)/C(C(N)=O)=C(\C)c1ccccc1 |  | 0.3 | 
> 4000 | 89 | COC(=O)C(=C(/C)c1cc(OC)cc(OC)c1)/C(=C\c1ccccc1)C(=O)NN1CCN(C)CC1 | 1.5 |  | Activity [5]: 50%; Activity [6]: Non-toxic
 |  | COC(=O)C(=C/c1cc(OC)c(OC)c(OC)c1)/C(=C\c1ccccc1)C(N)=O |  | 0.9 | 
 |  | COC(=O)C(/C(=C\c1ccccc1)C(N)=O)=C(\C)c1cc(OC)c(OC)c(OC)c1 |  | 0.3 | 
 |  | COC(=O)C(=C/c1cc(OC)c(OC)c(OC)c1)/C(=C/c1ccccc1)C(N)=O |  | 0.7 | 
 | 75 | COC(=O)C(=C\c1cc(OC)c(OC)c(OC)c1)/C(=C\c1ccccc1)C(N)=O |  | 0.7 | 
9 (≈ 0.0246 mM) | 79 | COc1cc(/C=C2/C(=O)NC(=O)/C2=C/c2ccccc2)cc(OC)c1OC | 1 | 1 | 
> 3000 | 87 | COC(=O)C(=C(/C)c1cc(OC)cc(OC)c1)/C(=C\c1ccccc1)C(=O)Nc1ccncc1 | 1.8 |  | Activity [5]: 58%; Activity [6]: Toxic
 |  | COC(=O)C(=C(/C)c1cc(OC)cc(OC)c1)/C(=C\c1ccccc1)C(=O)Nc1nnn[nH]1 | 0.1 |  | 
> 2000 | 83 | COC(=O)C(=C(/C)c1cc(OC)cc(OC)c1)/C(=C\c1ccccc1)C(=O)Nc1cccnc1 | 2.2 |  | 
1600 (≈ 3.39 mM) | 87 | COC(=O)C(=C(/C)c1cc(OC)cc(OC)c1)/C(=C\c1ccccc1)C(=O)NCc1cccnc1 | 1.3 |  | Activity [5]: 53%; Activity [6]: Toxic
 |  | COC(=O)C(=C(/C)c1cc(OC)cc(OC)c1)/C(=C\c1ccccc1)C(=O)NN1CC[N+](C)([O-])CC1 | 0.2 |  | 
 |  | COC(=O)C(=C(/C)c1cc(OC)cc(OC)c1)/C(=C\c1cccnc1)C(N)=O | 0.8 |  | 
 |  | COC(=O)C(=C/c1cc(OC)c(OC)c(OC)c1)/C(C(N)=O)=C(/C)c1ccccc1 |  | 0.2 | 
